The values that follow are results of earlier work, collected in patent US20070212428A1, “METHODS AND COMPOSITIONS FOR TREATING MOOD DISORDER” (MOOD MANAGEMENT SCIENCES, INC., priority 2004, published 2007).

Counter-ions that a name gives are not always drawn. Like-named read-outs stand apart in the source and are kept apart here. Where only a bound is given, the exact number is not on record here.

The conditions of data set [1]: cited from earlier work; for time to peak plasma concentration: after oral dosing.
For data set [2], the system named is norepinephrine neuronal reuptake. Particulars: cited from earlier work.
For data set [3], the system named is dopamine neuronal reuptake. To be noted: cited from earlier work.
In data set [4] the test system is muscarinic, histaminergic, or a-l adrenergic receptors. Particulars: in vitro; cited from earlier work.
For data set [5] the following is noted: cited from earlier work.
In data set [6] the test system is neuronal serotonin reuptake. To be noted: cited from earlier work.
The next data set has as its system monoamine oxidase. Particulars: cited from earlier work.
Where [7] appears, read: co-administered with venlafaxine.

Regarding `CN(C)CCCC1(c2ccc(F)cc2)OCc2cc(C#N)ccc21` (racemic) [citalopram, (±)-1-[3-(dimethylamino)propyl]-1-(4-fluorophenyl)-1,3-dihydro-5-isobenzofuran carbonitrile, hydrobromide], the “time to peak plasma concentration” value in data set [1] was “four”. Also, in data set [1] (daily dosing), the “time to steady state plasma concentrations” value is “a week”. The “increase of half life in elderly patients” value in data set [1] (elderly patients) is recorded as 23-50%. Further, in data set [1] (plasma), the elimination half-life result is “about 35 hours”.

In the case of `COc1ccc(C(CN(C)C)C2(O)CCCCC2)cc1.Cl` (racemic) [venlafaxine, (R/S)-1-[2-(dimethylamino)-1-(4-methoxyphenyl)ethyl] cyclohexanol hydrochloride], the “effect on norepinephrine reuptake (in words)” value in data set [2] was “potent inhibitors”. Also, in data set [3], the “effect on dopamine reuptake (in words)” value is “weak inhibitors”. In addition, the affinity entry in data set [4] was “not significant affinity”. The “oral absorption (in words)” value in data set [1] (oral administration) is reported as “well absorbed”. In addition, in data set [1] (plasma), the elimination half-life is 3 to 7 h. Further, in data set [1] (single dose), the “fraction renally excreted within 48 hours” value is on record as 87%. For the same molecule, the steady-state pharmacokinetics entry in data set [5] (venlafaxine 150 mg/day with a single 600 mg oral dose of lithium, 12 healthy males) was “unaffected”.

As to `NC(=O)N1c2ccccc2CC(O)c2ccccc21` (centres unmarked) [MHD], the elimination half-life result in data set [1] (human, in vivo) is “about 9 hours”.

Take `CN(C)CC(c1ccc(O)cc1)C1(O)CCCCC1` (centres unmarked) [ODV, O-desmethylvenlafaxine]: the “inhibition of serotonin reuptake (in words)” value in data set [6] was “potent inhibitors”. Moreover, in data set [2], the “effect on norepinephrine reuptake (in words)” value is on record as “potent inhibitors”. In data set [3], the “effect on dopamine reuptake (in words)” value is listed as “weak inhibitors”. Also, the affinity result in data set [4] is “not significant affinity”. Moreover, the elimination half-life in data set [1] (human, in vivo) is 9 to 13 h.

In the case of `Clc1ccc2c(c1)C(N1CCNCC1)=Nc1ccccc1O2` [amoxapine, 2-Chloro-11-(1-piperazinyl)dibenz-[b,f][1,4]oxazepine], the “time to peak plasma concentration” value in data set [1] is recorded as “approximately 90 minutes”. Also, the “oral absorption (in words)” value in data set [1] (oral administration) was “absorbed rapidly”.

On to `CN(C)CCCN1c2ccccc2Sc2ccc(Cl)cc21` [chlorpromazine, 10-(3-dimethylaminopropyl)-2-chlorphenothiazine], for which the “oral absorption (in words)” value in data set [1] (oral administration) is listed as “readily absorbed”. The elimination half-life result in data set [1] (plasma) is reported as “approximately 30 hours”.

With `O=c1ccc2ccc(OCCCCN3CCN(c4cccc(Cl)c4Cl)CC3)cc2[nH]1` [dehydro-aripiprazole], in data set [5] (lithium (1200-1800 mg/day) for 21 days with aripiprazole (30 mg/day)), the pharmacokinetics result is given as “did not result in clinically significant changes”.

Consider `O=C(CCCN1CCC(O)(c2ccc(Cl)cc2)CC1)c1ccc(F)cc1` [haloperidol, 4-[4-(p-chlorophenyl)-4-hydroxypiperidino]-4′-fluorobutyrophenone], for which the “time to peak plasma level” value in data set [1] (after i.m. injection) is “about 20 minutes”. Further, in data set [5] (setting [7]), the half life entry was “unchanged” and the “increase of peak plasma concentration (Cmax)” value is 88%. For the same molecule, the “increase in the area under the plasma concentration curve” value in data set [5] (single 2 mg dose of haloperidol with venlafaxine 150 mg/day) is on record as 70%.

As for `CC[C@@H](C(N)=O)N1CCCC1=O` [levetiracetam, (−)-(S)-α-ethyl-2-oxo-1-pyrrolidine acetamide], the “time to peak plasma concentration” value in data set [1] is listed as “about an hour”. For the same molecule, the reduction of clearance in data set [1] (moderate renal impairment) is given as 50%; in data set [1] (severe renal impairment), 60%. Besides, the “oral absorption (in words)” value in data set [1] (oral administration) was “rapidly and almost completely absorbed”. The elimination half-life result in data set [1] (plasma) was “approximately 7 hours”.

With `[Li]` [lithium], in data set [1] (human, in vivo), the “CSF lithium level at equilibration relative to the plasma concentration” value is “approximately half”, the “fraction eliminated with the feces” value is given as “less than 1%”, the “fraction of a single dose eliminated in urine” value was “Approximately 95%” and the “fraction of a single dose excreted in 24 hours” value was “About 50%”. Moreover, the “fraction of the filtered lithium reabsorbed in the tubules” value in data set [1] (human, in vivo) was 80%. In addition, the “oral absorption (in words)” value in data set [1] (oral administration) is “rapidly absorbed”. Also, the “time to steady state plasma concentrations” value in data set [1] (repeated dosing) was “five to six”. The “AUC and peak plasma concentrations of lithium” value in data set [5] (co-administered with risperidone) is given as “unaffected”. In data set [5] (multiple doses of olanzapine (10 mg for 8 days)), the kinetics of lithium result was “did not influence”. Also, the “steady state kinetics of lithium” value in data set [5] (valproate (500 mg BID) with lithium carbonate (300 mg TID), normal male volunteers) was “not effect”. In addition, the “steady-state pharmacokinetic parameters of lithium” value in data set [5] (with quetiapine (250 mg TID)) is given as “no effect”. For the same molecule, the “steady-state pharmacokinetics of lithium” value in data set [5] (with venlafaxine) is reported as “unaffected”. Further, the “steady state level and renal clearance of lithium” value in data set [5] (ziprasidone (40 mg BID) with lithium (450 mg BID for 7 days)) is “not affected”.

`CN1CCN(C2=Nc3ccccc3Oc3ccc(Cl)cc32)CC1` [loxapine succinate, 2-Chloro-11-(4-methyl-1-piperazinyl)dibenz[b,f][1,4]oxazepine]: in data set [1] (oral administration), the “oral absorption (in words)” value is listed as “virtually complete” and the time of excretion result is on record as “mainly in the first 24 hours”.

For `CNCCCC12CCC(c3ccccc31)c1ccccc12` [maprotiline, N-Methyl-9,10-ethanoanthracene-9(10H)-propanamine], in data set [1] (oral administration), the “oral absorption (in words)” value was “completely absorbed”.

Take `NC(=O)C[S+]([O-])C(c1ccccc1)c1ccccc1` (centres unmarked) [modafinil, 2-[(diphenylmethyl)sulfinyl]acetamide]: the “time to peak plasma concentration” value in data set [1] was 2 to 4 h. In data set [1] (oral administration), the “oral absorption (in words)” value is reported as “rapid”.

As for `CCc1nn(CCCN2CCN(c3cccc(Cl)c3)CC2)c(=O)n1CCOc1ccccc1` [nefazodone, 2-[3-[4-(3-chlorophenyl)-1-piperazinyl]propyl]-5-ethyl-2,4-dihydro-4-(2-phenoxyethyl)-3H-,1,2,4-triazo-3-one monohydrochloride], the elimination half-life in data set [1] (plasma) was 2 to 4 h.

Consider `NNCCc1ccccc1` [phenelzine sulfate, (2-phenethyl)hydrazine], for which, in the data set with monoamine oxidase, the “inhibition of monoamine oxidase” value was “potent inhibitor”. In data set [1], the “time to peak plasma concentration” value was 0.717 h. Also, the elimination half-life in data set [1] (plasma) is 11.6 h.

Consider `CSc1ccc2c(c1)N(CCC1CCCCN1C)c1ccccc1S2` (centres unmarked) [thioridazine, 2-methylmercapto-10-[2-(N-methyl-2-piperidyl)ethyl]phenothiazine], for which the elimination half-life entry in data set [1] (plasma) is on record as “approximately 10 hours”.

`CC1(C)O[C@@H]2[C@@H](CO[C@@]3(COS(N)(=O)=O)OC(C)(C)O[C@@H]23)O1` [topiramate, 2,3:4,5-Di-O-isopropylidene-β-D-fructopyranose sulfamate]: the “time to peak plasma concentration” value in data set [1] is listed as “approximately 2 hours”. The reduction of clearance in data set [1] (moderate renal impairment) is on record as 42%; in data set [1] (severe renal impairment), 54%. In addition, in data set [1] (oral administration), the “oral absorption (in words)” value was “rapid”. The “time to steady state plasma concentrations” value in data set [1] (repeated dosing) is “about 4 days”.

On to `O=c1n(CCCN2CCN(c3cccc(Cl)c3)CC2)nc2ccccn12` [trazodone, 2-[3-[4-(3-chlorophenyl)-1-piperazinyl]propyl]-1,2,4-triazolo[4,3-a]pyridin-3(2H)-one], for which, in data set [1] (taken with food), the “time to peak plasma levels” value is listed as “two”.

Take `CCCC(CCC)C(=O)O` [valproate, sodium hydrogen bis(2-propylpentanoate)]: the “effect on each drug's metabolism” value in data set [5] (olanzapine co-administered with valproate) was “little effect”.

As to `NS(=O)(=O)Cc1noc2ccccc12` [zonisamide, 1,2-benzisoxazole-3-methanesulfonamide], in data set [1], the “time to peak plasma concentration” value was 2 to 6 h. In addition, in data set [1] (plasma), the elimination half-life result is “about 63 hours”. In data set [1] (red blood cells), the “elimination half-life in RBC” value is “approximately 105 hours”. Moreover, in data set [1] (repeated dosing), the “time to steady state plasma concentrations” value was no more than 14 days.
